Data on one molecule can be found in US4012284A (Societa' Farmaceutici Italia, S.p.A., priority 1962, dated 1977).

The subject of one data set is several microorganisms. Description: Bacteriostatic activity / antimicrobial spectrum (summary statements). Type of data set: cell-based.
The test system of another data set is Ehrlich adenocarcinoma. Description: Ehrlich adenocarcinoma (solid) in mice (Table VI). It is filed as in vivo, mouse. The conditions noted are these: controls 0/10.

In the case of `COc1cccc2c1C(=O)c1c(O)c3c(c(O)c1C2=O)C[C@@](O)(C(C)=O)C[C@@H]3O[C@H]1C[C@H](N)[C@H](O)[C@H](C)O1` [F.I. 1762], in the data set on several microorganisms, the antimicrobial spectrum entry was “embraces grampositive, gram-negative bacteria, fungi and protozoa”. For the same molecule, in the data set on several microorganisms, the “bacteriostatic activity against several microorganisms” value is recorded as “remarkable bacteriostatic activity against several microorganisms”. The Mortality in the data set with Ehrlich adenocarcinoma (3 mg/kg/day) and with Ehrlich adenocarcinoma (6 mg/kg/day) was 0/10 each time.
